Measured values taken from patent US20050079529A1, “Very large scale immobilized polymer synthesis” (Affymetrix, INC., priority 1989, published 2005).
Square brackets hold non-standard residues; d marks the D form. Ends that are not written are not given here.

Key:
Herz antibody = test: Array of sixteen amino acid sequences, relative binding to Herz antibody by fluorescence; set-up: species or system mouse; settings: FIG. 17
Text: Using techniques similar to those set forth above, an array of 16 different amino acid sequences (replicated four times) was synthesized on each of two glass substrates. The sequences were synthesized by attaching the sequence NVOC-GFL across the entire surface of the slides. Using a series of masks, two layers of amino acids were then selectively applied to the substrate. Each region had dimensions of 0.25 cm×0.0625 cm. The first slide contained amino acid sequences containing only L amino acids while the second slide contained selected D amino acids. FIGS. 15A and 15B illustrate a map of the various regions on the first and second slides, respectively. The patterns shown in FIGS. 15A and 15B were duplicated four times on each slide. The slides were then exposed to the Herz antibody and fluorescein-labeled goat anti-mouse.
FIG. 16 is a fluorescence plot of the first slide, which contained only L amino acids. Light shading indicates strong binding (149,000 counts or more) while black indicates little or no binding of the Herz antibody (20,000 counts or less). The bottom right-hand portion of the slide appears “cut off” because the slide was broken during processing. […]
FIG. 17 is a fluorescence plot of the second slide. […]
Table 2 lists the various sequences tested in order of relative fluorescence, which provides information regarding relative binding affinity. […]

[1] = tested on: anti-dynorphin B monoclonal antibody; test: Dynorphin B deletion peptide array, relative binding of anti-dynorphin B monoclonal antibody by fluorescence intensity
Procedure: The binding epitope on dynorphin B for the anti-dynorphin B antibody described above was determined by deleting various amino acids and combinations of amino acids from the overall sequence of dynorphin B. The peptides containing these various deletions were prepared on a substrate by the general protection-deprotection methods described above. Then the substrate was exposed to the anti-dynorphin B monoclonal antibody and a fluorescence image was produced as shown in FIG. 33.
From the intensity distribution contained in this plot, it was possible to determine the relative binding affinity to various of the peptides.

[2] = tested on: anti-dynorphin B murine monoclonal antibody; test: 4×10 peptide array related to dynorphin B screened with anti-dynorphin B antibody and labeled goat anti-mouse antibody; type: binding; settings: FIG. 30
Text: An array of peptides synthesized using the general protection-deprotection technology outlined above. Referring to FIG. 30, the following peptides were synthesized: row 1=RXFKVVT; row 2=RQXFKVVT; row 3=RQXKVVT; and row 4=RXKVVT. In each row, “X” represents a group of four amino acids, which were simultaneously added to the immobilized peptide. The particular group of amino acids used as “X” on a given block are identified by column number as follows: column 1 [G,A,R,K in a ratio 1:1:1:1], column 2 [null]; column 3 [C,M,S,T in the ratio 1:1:1:5]; column 4 [null]; column 5 [F,Y,W,H in the ratio 1:1:1:1]; column 6 [null]; column 7 [D,E,N,Q in the ratio 1:1:1:1]; column 8 [null]; column 9 [V,L,I,P in the ratio 2:1:4:1]; and column 10 [null].
After these peptides were synthesized, they were screened with an anti-dynorphin B murine monoclonal antibody and then exposed to a fluorescently labeled goat anti-mouse antibody. […] Other strongly labeled regions, include column 7, row 1 and column 5, row 3, each of which contains some peptides having the above binding epitope. It should be noted that the varying ratios of some of the amino acids within a given group were necessary to obtain roughly equal binding efficiencies among the four amino acids.

Row | Substance | binding of Herz antibody, second slide (selected D amino acids) (Herz antibody) | RELATIVE INTENSITY ([1]; mean ± spread over N synthesis sites) | RELATIVE INTENSITY, value in parentheses (ADJUSTED) ([1]; second value in parentheses) | fluorescence labeling of array region [2]
1 | YpGFL: SEQ ID NO:24; lower case letters represent D-amino acids (Y[dP]GFL) | Significant binding |  |  | 
2 | RQFKVVT |  | 93.6 ± 10.0 | (96.2 ± 7.1) | brightest region
